Results from PubChem BioAssay (NCI).
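Step 1: Grow cells in 96-well plates. Step 2: Expose to compound for 48 hours at 5 concentrations. Step 3: Interpolate endpoints linearly; if unreached, use highest concentration. GI50 = concentration required for 50% inhibition of growth. TGI is the concentration that stops growth completely.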

How the values were obtained:
Assay in all cases: DTP human tumour cell line panel, 48 h
T-47D breast = test system: T-47D breast
A498 renal = test system: A498 renal
CAKI-1 renal = test system: CAKI-1 renal
SK-MEL-28 melanoma = test system: SK-MEL-28 melanoma
NCI-H522 lung = test system: NCI-H522 lung
NCI-H23 lung = test system: NCI-H23 lung
SK-OV-3 ovarian = test system: SK-OV-3 ovarian
OVCAR-8 ovarian = test system: OVCAR-8 ovarian
MDA-MB-231 breast = test system: MDA-MB-231 breast
IGROV1 ovarian = test system: IGROV1 ovarian
ACHN renal = test system: ACHN renal
SN12C renal = test system: SN12C renal
EKVX NSCLC = test system: EKVX NSCLC
MCF7 breast = test system: MCF7 breast
HS 578T breast = test system: HS 578T breast
SNB-75 CNS = test system: SNB-75 CNS
MDA-MB-468 breast = test system: MDA-MB-468 breast
CCRF-CEM leukemia = test system: CCRF-CEM leukemia
MALME-3M melanoma = test system: MALME-3M melanoma
SK-MEL-2 melanoma = test system: SK-MEL-2 melanoma
U251 CNS = test system: U251 CNS
A549 NSCLC = test system: A549 NSCLC
UACC-257 melanoma = test system: UACC-257 melanoma
SNB-19 CNS = test system: SNB-19 CNS
RPMI-8226 leukemia = test system: RPMI-8226 leukemia
OVCAR-4 ovarian = test system: OVCAR-4 ovarian
786-0 renal = test system: 786-0 renal
BT-549 breast = test system: BT-549 breast
KM12 colon = test system: KM12 colon
SF-268 CNS = test system: SF-268 CNS
OVCAR-5 ovarian = test system: OVCAR-5 ovarian
TK-10 renal = test system: TK-10 renal
MOLT-4 leukemia = test system: MOLT-4 leukemia
HCT-116 colon = test system: HCT-116 colon
SK-MEL-5 melanoma = test system: SK-MEL-5 melanoma
SF-295 CNS = test system: SF-295 CNS
HCT-15 colon = test system: HCT-15 colon
HL-60(TB) leukemia = test system: HL-60(TB) leukemia
HCC-2998 colon = test system: HCC-2998 colon
RXF 393 renal = test system: RXF 393 renal
HT29 colon = test system: HT29 colon
M14 melanoma = test system: M14 melanoma
HOP-62 NSCLC = test system: HOP-62 NSCLC
OVCAR-3 ovarian = test system: OVCAR-3 ovarian
HOP-92 NSCLC = test system: HOP-92 NSCLC
DU-145 prostate = test system: DU-145 prostate
NCI-H226 lung = test system: NCI-H226 lung
NCI-H460 lung = test system: NCI-H460 lung
MDA-MB-435 = test system: MDA-MB-435
UO-31 renal = test system: UO-31 renal
SF-539 CNS = test system: SF-539 CNS
K-562 leukemia = test system: K-562 leukemia
PC-3 prostate = test system: PC-3 prostate
UACC-62 melanoma = test system: UACC-62 melanoma

## O=C(/C=C/c1cccc(OCc2ccccc2)c1)c1nc2ccccc2[nH]1
T-47D breast
  GI50: 6.9 µM
  TGI: > 100 µM
A498 renal
  GI50: 25 µM
  TGI: > 100 µM
CAKI-1 renal
  GI50: 14 µM
  TGI: > 100 µM
SK-MEL-28 melanoma
  GI50: 25.2 µM
  TGI: > 100 µM
NCI-H522 lung
  GI50: 26.3 µM
  TGI: > 100 µM
NCI-H23 lung
  GI50: 18.3 µM
  TGI: > 100 µM
SK-OV-3 ovarian
  GI50: 20.2 µM
  TGI: 73.9 µM
OVCAR-8 ovarian
  GI50: 17 µM
  TGI: 72.6 µM
MDA-MB-231 breast
  GI50: 11.9 µM
  TGI: 42.5 µM
IGROV1 ovarian
  GI50: 14 µM
  TGI: 78.2 µM
ACHN renal
  GI50: 29.6 µM
  TGI: > 100 µM
SN12C renal
  GI50: 38 µM
  TGI: > 100 µM
EKVX NSCLC
  GI50: 19.9 µM
  TGI: 69.7 µM
MCF7 breast
  GI50: 2.9 µM
  TGI: > 100 µM
HS 578T breast
  GI50: 20.3 µM
  TGI: 82.5 µM
SNB-75 CNS
  GI50: 14.4 µM
  TGI: 48.7 µM
MDA-MB-468 breast
  GI50: 10.7 µM
  TGI: 82.5 µM
CCRF-CEM leukemia
  GI50: 8.99 µM
  TGI: > 100 µM
MALME-3M melanoma
  GI50: 28.3 µM
  TGI: > 100 µM
SK-MEL-2 melanoma
  GI50: 22.5 µM
  TGI: 64.8 µM
U251 CNS
  GI50: 3.03 µM
  TGI: 10.2 µM
A549 NSCLC
  GI50: 49.9 µM
  TGI: > 100 µM
UACC-257 melanoma
  GI50: > 100 µM
  TGI: > 100 µM
SNB-19 CNS
  GI50: 13.6 µM
  TGI: 41.1 µM
RPMI-8226 leukemia
  GI50: 2.86 µM
  TGI: 8.3 µM
OVCAR-4 ovarian
  GI50: 23.9 µM
  TGI: > 100 µM
786-0 renal
  GI50: 14 µM
  TGI: 44.1 µM
BT-549 breast
  GI50: 11.4 µM
  TGI: 40.2 µM
KM12 colon
  GI50: 3.56 µM
  TGI: > 100 µM
SF-268 CNS
  GI50: 26.2 µM
  TGI: > 100 µM
OVCAR-5 ovarian
  GI50: 25.2 µM
  TGI: > 100 µM
TK-10 renal
  GI50: 28.6 µM
  TGI: > 100 µM
MOLT-4 leukemia
  GI50: 5.28 µM
  TGI: 55.1 µM
HCT-116 colon
  GI50: 3.2 µM
  TGI: > 100 µM
SK-MEL-5 melanoma
  GI50: 39.1 µM
  TGI: > 100 µM
SF-295 CNS
  GI50: 15.6 µM
  TGI: 37.9 µM
HCT-15 colon
  GI50: 3.06 µM
  TGI: > 100 µM
HL-60(TB) leukemia
  GI50: 4.39 µM
  TGI: 25 µM
HCC-2998 colon
  GI50: 7.19 µM
  TGI: 41.3 µM
RXF 393 renal
  GI50: 10.5 µM
  TGI: 27.9 µM
HT29 colon
  GI50: 3.98 µM
  TGI: > 100 µM
M14 melanoma
  GI50: 45.1 µM
  TGI: > 100 µM
HOP-62 NSCLC
  GI50: 17.8 µM
  TGI: 43.2 µM
OVCAR-3 ovarian
  GI50: 4.01 µM
  TGI: > 100 µM
HOP-92 NSCLC
  GI50: 6.51 µM
  TGI: 37.2 µM
DU-145 prostate
  GI50: 54.6 µM
  TGI: > 100 µM
NCI-H226 lung
  GI50: 24.3 µM
  TGI: > 100 µM
NCI-H460 lung
  GI50: 15.4 µM
  TGI: > 100 µM
MDA-MB-435
  GI50: > 100 µM
  TGI: > 100 µM
UO-31 renal
  GI50: 8.96 µM
  TGI: > 100 µM
SF-539 CNS
  GI50: 8.82 µM
  TGI: 26.7 µM
K-562 leukemia
  GI50: 4.14 µM
  TGI: > 100 µM
PC-3 prostate
  GI50: 15.9 µM
  TGI: > 100 µM
UACC-62 melanoma
  GI50: 15.6 µM
  TGI: > 100 µM
